Laboratory results published in patent US20130344026A1, “Dimeric Smac Mimetics” (priority 2009, published 2013).
Read-outs that look alike come from different tables or passages of the source.

Tested on: PANC-1 cells
Assay: cell viability assay in PANC-1 cells (compound alone, + 100 ng/ml TNFa, + 300 ng/ml TRAIL)
Assay type: cell-based
[1] = Homo sapiens, PANC-1, compound alone, Tables 6-10, read-out: IC50 (μM) in cell viability assay in PANC-1 cells: Compound alone
[2] = with 100 ng/ml TNFa, Tables 6-10, read-out: IC50 (μM) in cell viability assay in PANC-1 cells: Compound + 100 ng/ml TNFa
[3] = with 300 ng/ml TRAIL, Tables 6-10, read-out: IC50 (μM) in cell viability assay in PANC-1 cells: Compound + 300 ng/ml TRAIL
[4] = compound alone, Tables 6-10, read-out: IC50 (μM) in cell viability assay in PANC-1 cells: Compound alone
[5] = Homo sapiens, PANC-1, compound alone, Tables 15-18, read-out: IC50 (uM) in cell viability assay in PANC-1 cells: Cmpnd alone
[6] = with 100 ng/ml TNFa, Tables 15-18, read-out: IC50 (uM) in cell viability assay in PANC-1 cells: Cmpnd + 100 ng/ml TNFa
[7] = with 300 ng/ml TRAIL, Tables 15-18, read-out: IC50 (uM) in cell viability assay in PANC-1 cells: Cmpnd + 300 ng/ml TRAIL

| IC50 [1] [µM] | IC50 [2] [µM] | IC50 [3] [µM] | Structure (SMILES) | IC50 [4] [µM] | IC50 [5] [µM] | IC50 [6] [µM] | IC50 [7] [µM] |
| --- | --- | --- | --- | --- | --- | --- | --- |
|  | 0.104 | 0.081 | CCC1(NC(=O)[C@@H]2C[C@H](NC(=O)c3cccc(C(=O)N[C@H]4C[C@@H](C(=O)NC5(CC)CCCc6ccccc65)N(C(=O)[C@@H](NC(=O)[C@H](C)NC)C(C)(C)C)C4)c3)CN2C(=O)[C@@H](NC(=O)[C@H](C)NC)C(C)(C)C)CCCc2ccccc21 (some centres unmarked) [Compound 51] | > 1 |  |  |  |
| > 1 | 0.577 | 0.622 | CN[C@@H](C)C(=O)Nc1nc(-c2ccccc2)c(C(=O)NCCc2cn([C@H]3C[C@@H](C(=O)N[C@@H]4CCCc5ccccc54)N(C(=O)[C@@H](NC(=O)[C@H](C)NC)C(C)(C)C)C3)nn2)s1 [Compound 196] |  |  |  |  |
| > 1 | 0.006 | 0.006 | CN[C@@H](C)C(=O)N[C@@H](CCCCCC[C@H](NC(=O)[C@H](C)NC)C(=O)N1C[C@@H](F)C[C@H]1C(=O)N[C@@H]1CCCc2ccccc21)C(=O)N1C[C@H](F)C[C@H]1C(=O)N[C@@H]1CCCc2ccccc21 [Compound 106] |  |  |  |  |
| > 1 | 0.155 | 0.196 | CN[C@@H](C)C(=O)N[C@H](C(=O)N1CCC[C@H]1CN1CCC[C@H]1C(c1ccccc1)c1ccccc1)[C@@H](C)OCC#CC#CCO[C@H](C)[C@H](NC(=O)[C@H](C)NC)C(=O)N1CCC[C@H]1CN1CCC[C@H]1C(c1ccccc1)c1ccccc1 [Compound 81] |  |  |  |  |
| > 1 |  |  | CN[C@@H](C)C(=O)N[C@H](C(=O)N1C[C@@H](OC(=O)c2cccc(C(=O)O[C@H]3C[C@@H](C(=O)N[C@H]4CCCc5ccccc54)N(C(=O)[C@@H](NC(=O)[C@H](C)NC)C(C)(C)C)C3)c2)C[C@H]1C(=O)N[C@H]1CCCc2ccccc21)C(C)(C)C [Compound 206] |  |  |  |  |
|  |  |  | CN[C@@H](C)C(=O)N[C@@H](CCC(=O)Nc1cccc(C#Cc2cccc(NC(=O)CC[C@H](NC(=O)[C@H](C)NC)C(=O)N3CCC[C@H]3C(=O)N[C@@H]3CCCc4ccccc43)c2)c1)C(=O)N1CCC[C@H]1C(=O)N[C@@H]1CCCc2ccccc21 [Compound P2-49] |  | > 1 | 0.033 | 0.033 |
| > 1 | 0.614 | > 1 | CN[C@@H](C)C(=O)N[C@@H](CCCCNC(=O)c1cc(C(=O)NCCCC[C@H](NC(=O)[C@H](C)NC)C(=O)N2CCC[C@H]2Cn2nnnc2Sc2ccccc2)[nH]n1)C(=O)N1CCC[C@H]1Cn1nnnc1Sc1ccccc1 [Compound 208] |  |  |  |  |
| > 1 | 0.56 | 0.55 | CN[C@@H](C)C(=O)N[C@@H]1CCN(C(=O)c2ccc(C(=O)N[C@H]3C[C@@H](C(=O)N[C@@H]4CCCc5ccccc54)N(C(=O)[C@@H](NC(=O)[C@H](C)NC)C(C)(C)C)C3)cc2)C1 [Compound 186] |  |  |  |  |
| > 1 | 0.054 | 0.089 | CN[C@@H](C)C(=O)N[C@@H](C)C(=O)N[C@@H](CCNC(=O)c1cccc(C(=O)N[C@H]2C[C@@H](C(=O)N[C@@H]3CCCc4ccccc43)N(C(=O)[C@@H](NC(=O)[C@H](C)NC)C(C)(C)C)C2)c1)C(=O)N[C@H](C)c1ccccc1 [Compound 178] |  |  |  |  |
| > 1 | 0.01 | 0.028 | CN[C@@H](C)C(=O)N[C@H](C(=O)N[C@@H](CCNC(=O)c1cccc(C(=O)N[C@H]2C[C@@H](C(=O)N[C@@H]3CCCc4ccccc43)N(C(=O)[C@@H](NC(=O)[C@H](C)NC)C(C)(C)C)C2)c1)C(=O)N[C@@H]1CCCc2ccccc21)C(C)(C)C [Compound 169] |  |  |  |  |
| > 1 | 0.025 | 0.028 | CN[C@@H](C)C(=O)N[C@@H](C)C(=O)N1C[C@@H](NC(=O)c2cccc(C(=O)N[C@H]3C[C@@H](C(=O)N[C@@H]4CCCc5ccccc54)N(C(=O)[C@@H](NC(=O)[C@H](C)NC)C(C)(C)C)C3)c2)C[C@H]1C(=O)N[C@H](C)c1ccccc1 [Compound 172] |  |  |  |  |
| > 1 | 0.027 | 0.076 | CN[C@@H](C)C(=O)N[C@@H](CCCCNC(=O)c1cccc(C(=O)N[C@H]2C[C@@H](C(=O)N[C@@H]3CCCc4ccccc43)N(C(=O)[C@@H](NC(=O)[C@H](C)NC)C(C)(C)C)C2)c1)C(=O)N1CCC[C@H]1C(=O)NC(c1ccccc1)c1ccccc1 [Compound 184] |  |  |  |  |
|  |  |  | CN[C@@H](C)C(=O)N[C@@H](CCCCCC[C@H](NC(=O)[C@H](C)NC)C(=O)N1CCC[C@H]1CNC(=O)c1ccccn1)C(=O)N1CCC[C@H]1CNC(=O)c1ccccn1 [Compound P2-47] |  | > 1 | 0.108 | 0.153 |
| > 1 | > 1 | > 1 | CN[C@@H](C)C(=O)N[C@H](C(=O)N1CCC[C@H]1Cn1cnnc1CCc1ccccc1)[C@@H](C)OCCCCCCO[C@H](C)[C@H](NC(=O)[C@H](C)NC)C(=O)N1CCC[C@H]1Cn1cnnc1CCc1ccccc1 [Compound 86] |  |  |  |  |
|  |  |  | CN[C@@H](C)C(=O)N[C@@H](CCCCNC(=O)CCCCCCC(=O)NCCCC[C@H](NC(=O)[C@H](C)NC)C(=O)N1CCC[C@H]1C(=O)N[C@@H]1CCCc2ccccc21)C(=O)N1CCC[C@H]1C(=O)N[C@@H]1CCCc2ccccc21 [Compound P2-34] |  | > 1 | 0.04 | 0.064 |
|  |  |  | CN[C@@H](C)C(=O)N[C@@H](CCC(=O)Nc1cccc(CCc2cccc(NC(=O)CC[C@H](NC(=O)[C@H](C)NC)C(=O)N3CCC[C@H]3C(=O)N[C@@H]3CCCc4ccccc43)c2)c1)C(=O)N1CCC[C@H]1C(=O)N[C@@H]1CCCc2ccccc21 [Compound P2-44] |  | > 1 | 0.017 | 0.01 |
| > 1 | 0.014 | 0.049 | CN[C@@H](C)C(=O)N[C@@H](CCCCCC[C@H](NC(=O)[C@H](C)NC)C(=O)N1CCCC[C@H]1C(=O)N[C@@H]1CCCc2ccccc21)C(=O)N1CCCC[C@H]1C(=O)N[C@@H]1CCCc2ccccc21 [Compound 94] |  |  |  |  |

| Structure (SMILES) | IC50 [1] [µM] | IC50 [2] [µM] | IC50 [3] [µM] | IC50 [4] [µM] | IC50 [5] [µM] | IC50 [6] [µM] | IC50 [7] [µM] |
| --- | --- | --- | --- | --- | --- | --- | --- |
| CN[C@@H](C)C(=O)N[C@H](C(=O)N[C@@H](CCNC(=O)c1cc(C(=O)N[C@H]2C[C@@H](C(=O)N[C@@H]3CCCc4ccccc43)N(C(=O)[C@@H](NC(=O)[C@H](C)NC)C(C)(C)C)C2)cc([N+](=O)[O-])c1)C(=O)N[C@@H]1CCCc2ccccc21)C(C)C [Compound 182] | > 1 | 0.043 | 0.08 |  |  |  |  |
| CN[C@@H](C)C(=O)N[C@H](C(=O)N1C[C@@H](NC(=O)c2cccc(C(=O)N[C@H]3C[C@@H](C(=O)NC4CCCc5cc(Br)ccc54)N(C(=O)[C@@H](NC(=O)[C@H](C)NC)C(C)(C)C)C3)c2)C[C@H]1C(=O)NC1CCCc2cc(Br)ccc21)C(C)(C)C (single isomer, unassigned) [Compound 75] | > 1 | 0.018 | 0.013 |  |  |  |  |
| CN[C@@H](C)C(=O)N[C@H](C(=O)N1CCC[C@H]1C(=O)N[C@H]1c2ccccc2C[C@H]1OCCCCCCO[C@@H]1Cc2ccccc2[C@@H]1NC(=O)[C@@H]1CCCN1C(=O)[C@@H](NC(=O)[C@H](C)NC)C(C)(C)C)C(C)(C)C [Compound 120] | > 1 |  |  |  |  |  |  |
| CN[C@@H](C)C(=O)N[C@H](C(=O)N1C[C@@H](NC(=O)c2ccc(C(=O)N3CCN(C(=O)[C@H](C)NC)CC3)cc2)C[C@H]1C(=O)N[C@@H]1CCCc2ccccc21)C(C)(C)C [Compound 188] | > 1 | 0.56 | 0.55 |  |  |  |  |
| CCCC[C@H](C)NC(=O)c1cc(C(=O)N[C@H]2C[C@@H](C(=O)N[C@@H]3CCCc4ccccc43)N(C(=O)[C@@H](NC(=O)[C@H](C)NC)C(C)(C)C)C2)cc(C(=O)N[C@H]2C[C@@H](C(=O)N[C@@H]3CCCc4ccccc43)N(C(=O)[C@@H](NC(=O)[C@H](C)NC)C(C)(C)C)C2)c1 [Compound 130] | > 1 | 0.018 | 0.019 |  |  |  |  |
| CN[C@@H](C)C(=O)N[C@H](C(=O)N1C[C@@H](NC(=O)c2cccc(C(=O)N[C@H]3C[C@@H](C(=O)NC4CCCc5cc(F)ccc54)N(C(=O)[C@@H](NC(=O)[C@H](C)NC)C(C)(C)C)C3)c2)C[C@H]1C(=O)NC1CCCc2cc(F)ccc21)C(C)(C)C (single isomer, unassigned) [Compound 73] |  | 0.0698 | 0.073 | > 1 |  |  |  |
| CN[C@@H](C)C(=O)N[C@@H](CCCCCC[C@H](NC(=O)[C@H](C)NC)C(=O)N1CCC[C@H]1CNC(=O)Cc1ccccc1)C(=O)N1CCC[C@H]1CNC(=O)Cc1ccccc1 [Compound 77] | > 1 | > 1 | > 1 |  |  |  |  |
| CCCC[C@@H](C)NC(=O)c1cc(C(=O)N[C@H]2C[C@@H](C(=O)N[C@@H]3CCCc4ccccc43)N(C(=O)[C@@H](NC(=O)[C@H](C)NC)C(C)(C)C)C2)cc(C(=O)N[C@H]2C[C@@H](C(=O)N[C@@H]3CCCc4ccccc43)N(C(=O)[C@@H](NC(=O)[C@H](C)NC)C(C)(C)C)C2)c1 [Compound 128] | > 1 | 0.01 | 0.014 |  |  |  |  |
| CN[C@@H](C)C(=O)N[C@H](C(=O)N1C[C@@H](NC(=O)c2cccc(C(=O)N[C@H]3C[C@@H](C(=O)NC4CCSc5ccccc54)N(C(=O)[C@@H](NC(=O)[C@H](C)NC)C(C)(C)C)C3)c2)C[C@H]1C(=O)NC1CCSc2ccccc21)C(C)(C)C (single isomer, unassigned) [Compound 67] | > 1 | 0.191 | 0.22 |  |  |  |  |
| CN[C@@H](C)C(=O)N[C@@H](CCCCCC[C@H](NC(=O)[C@H](C)NC)C(=O)N1CCC[C@H]1c1ncc(C(=O)Nc2ccccc2)o1)C(=O)N1CCC[C@H]1c1ncc(C(=O)Nc2ccccc2)o1 [Compound 39] | > 1 | > 1 | > 1 |  |  |  |  |
| CN[C@@H](C)C(=O)N[C@@H](CCCCCC[C@H](NC(=O)[C@H](C)NC)C(=O)N1CCC[C@H]1CNC(=O)c1c(OC)cccc1OC)C(=O)N1CCC[C@H]1CNC(=O)c1c(OC)cccc1OC [Compound 35] | > 1 | > 1 | > 1 |  |  |  |  |
